# Source: patent publication US20260242738A1, “ALK5 INHIBITORS FOR EFFICIENT DERIVATION OF MESENCHYMAL STEM CELLS FROM EMBRYONIC STEM CELLS” (SCRIPPS HEALTH, priority 2022, published 2026)
# Values joined by “and” are separate entries in the source; they are usually repeats but may differ in a detail not shown here. Identical values can stand only once. “Also recorded” adds a separate entry of the source.
# Assays:
# [1] = system: HADC100 ESC; experiment: Flow cytometry of MSC surface markers after ESC to MSC differentiation with ALK-5 inhibitors; assay type: cell-based, human; design: key to CD90 surface marker expression level / CD105 surface marker expression level / CD34 surface marker expression level / CD45 surface marker expression level / CD73 surface marker expression level: % cells positive relative to isotype control background; conditions: for triple positive for CD73, CD90 and CD105: co-expression analysis; for CD90 surface marker expression level / CD34 surface marker expression level / CD45 surface marker expression level / CD73 surface marker expression level / CD105 surface marker expression level: HADC100 ESC, SB525334 10 μM 5 days, GW788388 5 μM 5 days, ± standard deviation; for CD90 surface marker expression level: in %; for CD34 surface marker expression level / CD45 surface marker expression level / CD73 surface marker expression level / CD105 surface marker expression level: in % (unit assumed); for MSC differentiation / differentiating ES-MSC: overall statement of the discussion
# Protocol: An overview of the differentiation process is provided in FIG. 1, panel K. To create cell clusters or embryoid bodies of uniform size, ESCs were removed from CellStart culture using Accutase® for 2-5 minutes until single cells were observed. […] After 24 hours, the cell clusters were suspended at 2.5-3×10^5 cells per ml in ultra-low adherent 6 well plates (Corning) in StemPro-34 serum free medium (ThermoFisher) supplemented with 2 mM L-glutamine (ThermoFisher Scientific), 50 μg/ml Ascorbic acid (Stemcell Technologies, Vancouver, Canada) and 1.8 μl/ml ITS-G (100× Insulin-Transferrin-Selenium; ThermoFisher); termed as “complete SP-34 medium”.
# The medium was changed every 2 days by removing cell clusters into 15 ml sterile tubes and permitted to gravity settle for 10 minutes at room temperature. Most of the media was removed using a pipette to leave approximately 300-500 μl of medium. Freshly made medium (with the appropriate ALK5 inhibitor or DMSO) was replaced at the same volumes and well number into new ultra-low adherent plates.
# After treatment with the appropriate ALK5 inhibitor, the cell clusters were removed by gravity settling and suspended in complete SP-34 medium supplemented with bFGF 20 ng/ml (without any ALK-5 inhibitor or DMSO) and transferred onto fibronectin (FN) coated (10 μg/ml; Fibronectin from human plasma, Sigma-Aldrich, St. Louis, MO) T75 cm^2 flasks (passage zero (P0)). The emerging cells and remaining cell clusters were exposed to Accutase® for 5-10 minutes, gently triturated and counted. The cells were seeded at […] in T75 FN coated flask (P1) and medium changed every 3-4 days until 80-90% confluence. At this point, the cells were detached using Accutase® for continued culture, screened for surface marker phenotype characterization (flow cytometry), placed into 3D cultures to assess chondrogenic differentiation capacity, or preserved in liquid nitrogen.
# Cells were detached using Accutase®, washed and suspended in FACS buffer at a concentration of 0.2×10^6 cells per 100 μl. A panel of CD molecules were used, each with the following fluorochromes: CD34-FITC, CD45-BV510, CD73-APC (BioLegend, San Diego, California) CD90-PE-Cy7, and CD105-BV650 (BD Biosciences, Franklin Lakes, New Jersey). Matching isotype control IgGs with the same fluorochrome conjugates were used for background gating. For compensation of spectral overlap, unstained cells, and individual tubes with each fluorochrome were incubated with Dynabeads to distinguish between positive and negative fluorochrome signals. Data was acquired with the Novocyte flow cytometer (ACEA Biosciences Inc. San Diego, CA) and analyzed using FlowJo software (version 10, FlowJo, LLC, Ashland, OR) to determine percentage positive signal for each molecule relative to isotype background non-specific signal controls.
# [2] = system: HADC 100 ES-MSC; experiment: Pellet culture chondrogenesis, histology and immunohistochemistry; assay type: cell-based, human; conditions: 3 weeks; for cartilage-like tissue formation in high density pellets: HADC 100 ES-MSC, Safranin-O, collagen type I and II
# Protocol: Monolayer-expanded ES-MSC (passage 2-5) were detached using Accutase® and 0.5×10^6 cells in 0.5 ml of chondrogenic medium were centrifuged at 900 rpm (~770 G) for 5 minutes to form high-density pellets. At least 5-6 pellets, for each ES-MSC condition, were cultured in serum-free chondrogenic medium consisting of Dulbecco's Modified Eagle Medium (Mediatech Inc., Manassas, VA), 1×ITS supplement (Sigma-Aldrich, St. Louis, MO), 100 nM Dexamethasone (Sigma), 1.25 mg/ml human serum albumin (Bayer, Leverkusen, Germany), 100 μM ascorbic acid 2-phosphate (Sigma), 1% penicillin/streptomycin/gentamycin (PSG, Gibco, Carlsbad, CA), and 10 ng/ml TGFβ3 (PeproTech, Rocky Hill, NJ). Pellets for ex vivo implantation were cultured for 3 days before implantation; pellets for histologic or gene expression analysis were maintained in culture for 3 weeks with media changes every 3 to 4 days.
# Cell pellets and explants were fixed in Z-Fix (3.7% formaldehyde, Anatech Ltd., Battle Creek, MI), processed for embedding in paraffin, and cut into 4 μm-thick sections. Sections were stained with Safranin-O and Fast Green to visualize glycosaminoglycan distribution in the tissues. Alzarin Red S staining was used to detect the presence of mineralized matrix.
# For assessment of collagen types I and II, sections were pretreated with pepsin (Digest-All 3, Thermo Fisher Scientific) for 9 minutes at 37° C. in a humid chamber before incubation at 4° C. for 12 to 16 hours with the following primary antibodies: rabbit anti-human collagen type I antibody (Ab 34710, Abcam, Cambridge, MA) 1 μg/ml; or mouse anti-human collagen type II (II-II6B3, Hybridoma Bank, University of Iowa) 2 μg/ml. For color development, the ImmPRESS secondary DAB (brown) or AP (red) kits (Vector Laboratories, Burlingame, CA) was used. Isotype controls were used to monitor non-specific staining.
# [3] = HADC 100 ES-MSC, SB431542 10 μM 10 days, N=4
# [4] = N=4, SB431542 10 μM 10 days, listed as SB43
# [5] = N=4, SB431542 10 μM 10 days, listed as SB52
SMILES,CD73 positive cells ([1]; HADC 100 ES-MSC),"CD90 positive cells [1, 3]","CD105 positive cells [1, 3]","triple positive for CD73, CD90 and CD105 ([1]; HADC 100 ES-MSC)","CD90 surface marker expression level ([1]; N=4, SB431542 10 μM 10 days)","CD34 surface marker expression level ([1]; N=4, SB431542 10 μM 10 days)","CD45 surface marker expression level ([1]; N=4, SB431542 10 μM 10 days)","CD73 surface marker expression level ([1]; N=4, SB431542 10 μM 10 days)","CD105 surface marker expression level ([1]; N=4, SB431542 10 μM 10 days)","CD90 surface marker expression level [1, 4]","CD105 surface marker expression level [1, 4]",MSC differentiation / differentiating ES-MSC [1],cartilage-like tissue formation in high density pellets [2],"CD90 surface marker expression level [1, 5]","CD105 surface marker expression level [1, 5]","staining for GAGs, collagen type II and collagen type I in pellets compared to the other ALK5 inhibitors ([2]; HADC 100 ES-MSC pellets)"
NC(=O)c1ccc(-c2nc(-c3ccc4c(c3)OCO4)c(-c3ccccn3)[nH]2)cc1 [SB431542],94±12% and 93.6±11.8%,88±10%,86±7%,88±8%,87.6±10.4,1.8 ± 0.9,1.2 ± 0.5,93.6 ± 11.8,86.1±6.5,87.6 ± 10.4,86.1 ± 6.5,equally effective,consistently produced cartilage like-tissue,,,
Cc1cccc(-c2[nH]c(C(C)(C)C)nc2-c2ccc3nccnc3c2)n1 [SB525334],,,,87±8%,93.9±7.6,1.9 ± 0.9,1.5 ± 0.5,99.2 ± 1.0,85.4±12.2,,,successfully induced MSC differentiation; also recorded: equally effective,also produced cartilage-like tissue,93.9 ± 7.6,85.4 ± 12.2,"most consistent staining for GAGs and collagen type II, and lower collagen type I signal; also recorded: most uniform GAGs and collagen type II deposition, and with reduced collagen type I"
